Drawing on patent US20070009944A1, “Assay for nucleic acid ligase and nucleic acid nuclease” (University of East Anglia, priority 2005, published 2007), this text covers IC50 for one compound.

Where a name gives a salt, the structure may show the parent alone.

The target in this assay is T1, E. coli DNA ligase (LigA) (Escherichia coli, UniProt P15042).
T1 construct: His tag; made in house
The assay can be described thus: In-well ligation of immobilised nicked DNA hairpins (fluorescence retention, micro-titre plate). The format is biochemical. The conditions noted are these: 15 nM E. coli DNA ligase; ligates 60% of immobilized hairpins without inhibitor; FIG. 8; read-out: 50% inhibition of E. coli DNA ligase activity. The procedure:
Ligation of immobilised nicked hairpins was performed in the streptavidin coated wells of a micro-titre plate (StreptaWell HighBind 96-well plate, opaque, white). After each of the following steps were performed, the entire solution in the well was removed and stored or discarded, as required. Hairpins were immobilised by placing 80 μL of a 5 μM hairpin solution into each well. The hairpin solution was removed after 5 minutes and the wells washed 5 times with 100 μL Wash Buffer (30 mM Tris-HCl, 4 mM MgCl2, pH 8.1), which allowed a stable fluorescence signal to be obtained from the immobilised hairpins. […] Fluorescence was recorded with a FL×800 Microplate Fluorescence Reader (Bio-Tek Instruments Inc). […]
In-well ligation of the nicked DNA hairpins by LigA was reflected by retention of fluorescence after exposure to DNA ligase and denaturation conditions, as shown in FIG. 6. […] The retention of fluorescence after exposure to DNA ligase and denaturation conditions is in contrast to the almost complete loss of fluorescence noted when the experiment was repeated without DNA ligase. […] The efficiency of in-well ligation was calculated in the following manner. The fluorescence retained in control experiments with the nicked hairpin was taken as a measure of background fluorescence intensity. […]

T1 sequence (P15042 whole entry): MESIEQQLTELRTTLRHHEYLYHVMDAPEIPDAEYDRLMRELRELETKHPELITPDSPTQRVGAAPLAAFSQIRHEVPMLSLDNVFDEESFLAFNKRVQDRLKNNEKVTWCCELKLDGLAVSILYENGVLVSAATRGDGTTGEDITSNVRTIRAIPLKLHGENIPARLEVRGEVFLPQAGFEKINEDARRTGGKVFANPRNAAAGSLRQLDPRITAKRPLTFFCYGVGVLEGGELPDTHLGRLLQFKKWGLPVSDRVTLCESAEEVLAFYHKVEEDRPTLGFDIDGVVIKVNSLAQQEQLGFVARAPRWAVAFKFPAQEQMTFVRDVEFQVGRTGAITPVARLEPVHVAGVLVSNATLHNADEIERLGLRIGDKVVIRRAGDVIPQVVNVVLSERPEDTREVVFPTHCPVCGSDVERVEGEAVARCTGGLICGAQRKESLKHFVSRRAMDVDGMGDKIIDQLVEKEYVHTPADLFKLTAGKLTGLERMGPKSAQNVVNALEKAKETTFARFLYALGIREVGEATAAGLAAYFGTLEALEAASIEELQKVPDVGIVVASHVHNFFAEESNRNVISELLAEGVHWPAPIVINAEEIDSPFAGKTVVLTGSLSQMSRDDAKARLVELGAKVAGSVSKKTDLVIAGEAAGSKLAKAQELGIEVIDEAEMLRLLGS

`CCN(CC)CCCC(C)Nc1c2ccc(Cl)cc2nc2ccc(OC)cc12` (stereo not shown) [quinacrine, quinacrine dihydrochloride]: the IC50 was around 20 µM.
